Experimental data taken from ChEMBL document CHEMBL5252596, “Synthesis and Cytotoxicity Evaluation of Betulin Cycloolefin Derivatives by Ruthenium-Catalyzed Ring-Closing Metathesis” (J Nat Prod, 2023).

Key:
HeLa [1] = test: Antiproliferative activity against human HeLa cells assessed as cell growth inhibition at 10 uM incubated for 24 hrs by CCK-8 assay relative to control; type: functional; design: scale not given: the % may be the effect or the level left
[2] = Cytotoxicity against mouse L929 cells assessed as cell growth inhibition at 10 uM incubated for 24 hrs by CCK-8 assay relative to control; type: toxicity, cell-based; conditions: read-out: Activity
HeLa [3] = test: Antiproliferative activity against human HeLa cells assessed as reduction in live cells at 10 uM incubated for 24 hrs by calcein-AM/PI staining based fluorescence microscopic analysis relative to control (reference value: 3.78%); type: functional; design: scale not given: the % may be the effect or the level left
HeLa [4] = test: Antiproliferative activity against human HeLa cells assessed as reduction in dead cells at 10 uM incubated for 24 hrs by calcein-AM/PI staining based fluorescence microscopic analysis relative to control (reference value: 0.15%); type: functional; design: scale not given: the % may be the effect or the level left
L929 [5] = test: Cytotoxicity against mouse L929 cells assessed as reduction in live cells at 10 uM incubated for 24 hrs by calcein-AM/PI staining based fluorescence microscopic analysis relative to control (reference value: 8.65%); type: toxicity, cell-based; design: scale not given: the % may be the effect or the level left; conditions: l929, 24 h
L929 [6] = test: Cytotoxicity against mouse L929 cells assessed as reduction in dead cells at 10 uM incubated for 24 hrs by calcein-AM/PI staining based fluorescence microscopic analysis relative to control (reference value: 0.38%); type: toxicity, cell-based; design: scale not given: the % may be the effect or the level left; conditions: l929, 24 h
L929 [7] = test: Induction of apoptosis in mouse L929 cells assessed as viable cells at 10 uM incubated for 24 hrs by Annexin V-PE staining based flow cytometry analysis (reference value: 98%); type: functional; conditions: read-out: Activity
L929 [8] = test: Induction of apoptosis in mouse L929 cells assessed as early apoptotic cells at 10 uM incubated for 24 hrs by Annexin V-PE staining based flow cytometry analysis (reference value: 1.47%); type: functional
L929 [9] = test: Induction of apoptosis in mouse L929 cells assessed as late apoptotic cells at 10 uM incubated for 24 hrs by Annexin V-PE staining based flow cytometry analysis (reference value: 0.53%); type: functional
L929 [10] = test: Induction of apoptosis in mouse L929 cells assessed as necrotic cells at 10 uM incubated for 24 hrs by Annexin V-PE staining based flow cytometry analysis (reference value: 0.00%); type: functional
HeLa [11] = test: Induction of apoptosis in human HeLa cells assessed as viable cells at 10 uM incubated for 24 hrs by Annexin V-PE staining based flow cytometry analysis (reference value: 97.43%); type: functional; conditions: read-out: Activity
HeLa [12] = test: Induction of apoptosis in human HeLa cells assessed as early apoptotic cells at 10 uM incubated for 24 hrs by Annexin V-PE staining based flow cytometry analysis (reference value: 2.55%); type: functional
HeLa [13] = test: Induction of apoptosis in human HeLa cells assessed as late apoptotic cells at 10 uM incubated for 24 hrs by Annexin V-PE staining based flow cytometry analysis (reference value: 0.02%); type: functional
HeLa [14] = test: Induction of apoptosis in human HeLa cells assessed as necrotic cells at 10 uM incubated for 24 hrs by Annexin V-PE staining based flow cytometry analysis (reference value: 0.00%); type: functional

SMILES	Activity (HeLa [1])	inhibition at 24 h, 10 µM [2]	Activity (HeLa [3])	Activity (HeLa [4])	Activity (L929 [5])	Activity (L929 [6])	viability at 10 µM (L929 [7])	Activity (L929 [8])	Activity (L929 [9])	Activity (L929 [10])	viability at 10 µM (HeLa [11])	Activity (HeLa [12])	Activity (HeLa [13])	Activity (HeLa [14])
C=CCCC(=O)OC[C@]12CC[C@@H](C(=C)C)[C@@H]1[C@H]1CC[C@@H]3[C@@]4(C)CC[C@H](O)C(C)(C)[C@@H]4CC[C@@]3(C)[C@]1(C)CC2	37%	29%	1.4%	1.02%	2.15%	2.83%	84.8%	9.38%	5.86%	0%	58.2%	10.95%	30.3%	0.53%
C=CCCCCCCCCC(=O)OC[C@]12CC[C@@H](C(=C)C)[C@@H]1[C@H]1CC[C@@H]3[C@@]4(C)CC[C@H](O)C(C)(C)[C@@H]4CC[C@@]3(C)[C@]1(C)CC2	55%	47%	2.03%	0.69%	4.65%	1.77%	82%	0.75%	4.55%	1.29%	79%	0.98%	18.58%	1.41%
C/C1=C/CCCCCCCCC(=O)OC[C@]23CC[C@@H]1[C@@H]2[C@H]1CC[C@@H]2[C@@]4(C)CC[C@H](O)C(C)(C)[C@@H]4CC[C@@]2(C)[C@]1(C)CC3			1.29%	0.91%	3.67%	2.1%	77.2%	12.6%	5.04%	5.18%	70.5%	2.66%	26.22%	0.61%
C/C1=C/CCC(=O)OC[C@]23CC[C@@H]1[C@@H]2[C@H]1CC[C@@H]2[C@@]4(C)CC[C@H](O)C(C)(C)[C@@H]4CC[C@@]2(C)[C@]1(C)CC3			0.46%	1.78%	1.71%	5.76%	5.69%	0.12%	72.6%	21.59%	31.4%	5.09%	62.84%	0.65%
C=C(C)[C@@H]1CC[C@]2(CO)CC[C@]3(C)[C@H](CC[C@@H]4[C@@]5(C)CC[C@H](O)C(C)(C)[C@@H]5CC[C@]43C)[C@@H]12 [BETULIN]	58%	55%	2.8%	0.53%	5.19%	0.79%	96.5%	2.94%	0.61%	0%	87.8%	12.16%	0.03%	0%
